{
  "source": "patent US20240103006A1",
  "about": "(Roche Diagnostics Operations, Inc., priority 2021, published 2024)",
  "key": {"[1]": {"experiment": "UV-vis spectral properties / extinction coefficients in aqueous buffer", "format": "physicochemical", "details": "probe before addition of Cys; for ε of long-wavelength band of probe / ε of short-wavelength band(s) of probe / λmax, long-wavelength band of probe / λmax, short-wavelength band(s) of probe: 25 mM HEPES pH 7.4", "experimental": "Absorption spectra were recorded on a Cary 50 UV-vis spectrometer from Varian. All measurements were performed in 1 cm UV-vis disposable cuvettes (BRAND semi-micro) and air-equilibrated solutions at 25±0.1° C. A total assay volume of 1.0 mL was used for each measurement. UV-vis scan spectra were recorded using following parameters: average time 0.05 s; data interval 1 nm; scan rate 1200 nm/min; with base line correction.\n(§1) Stock solutions of assayed compounds (2-5 mM) were prepared in H2O-DMSO (1:1), stored at −20° C., and diluted to 1.0 mM with buffer before use. The L-Cys stock solution (20.0 mM) was freshly prepared in buffer before the measurements. […]\nFor a measurement, 1000 μL of buffer and 1-50 μL of probe (1.0 mM) were mixed, and then transferred to a cuvette. Absorbance spectra (250-800 nm) were measured against a blank of the buffer. At least six concentrations of each compound were used to calculate extinction coefficients from the slope of probe concentration vs absorbance plots, using MS Excel software (Microsoft)."}, "[2]": {"experiment": "Cys-response screening by UV-vis (cleavage of acryloyl ester by excess Cys)", "details": "for ε^Cys / λ^Cys: after excess Cys (100 μM), 37° C., 15 min; for SNR: from ε^Cys and ε^blank", "experimental": "as §1\nIn the same manner, ε^Cys was determined from the solutions of probe reacted with an excess of Cys (100 μM). The reactions were performed at 37° C. (incubation time 15 min). Blank reactions were run without addition of Cys.\nSpectra recorded in the presence of Cys confirmed a colorimetric response through the cleavage of acryloyl ester. […] Moreover, their spectral profiles were advantageously fulfilling the wavelength requirement for the Cys sensing application in Cedex system (340, 378, 409, 480, 512, 520, 552, 583, 629, 652, 659 and 800 nm)."}, "[3]": {"experiment": "Evaluation of stability (hydrolysis of probe in buffer, UV-vis)", "format": "physicochemical", "details": "25 mM HEPES pH 7.4, 15.6 μM, 5 h, ε from merocyanine analogues (LZ07: ε from Table 2)", "experimental": "For a measurement, 1000 μL of buffer and 16 μL of probe (1.0 mM) were mixed, and then incubated at +4° C. and at +37° C. for 5 h. The resulting mixtures were transferred to a cuvette, and the absorbance (250-800 nm) was measured. Each measurement was done in triplicate.\n[…] Solutions of each probe were monitored by UV-vis for 5 h."}, "[4]": {"experiment": "Evaluation of solubility in water", "format": "physicochemical", "details": "for Solubility (by weight) / Solubility (by UV-vis): H2O at RT; for Solubility (by weight): calculated from isolated pellet weight; for Solubility (by UV-vis): supernatant read in 25 mM HEPES pH 7.4", "experimental": "In the experiments, 5-10 mg of dried material was suspended in 250-500 μL of H2O at RT. The resulting suspension was centrifuged for 10 min at RT (16000 rcf). UV-vis of supernatant were recorded in buffer (25 mM HEPES pH 7.4) at RT. Each measurement was done in triplicate. The pellet was dried in vacuo for 16 h, and then weighed.\nThe aqueous solubility of probes is another important property for the performance of compounds in biological assays. The inventors determined the solubility in water of the probes according to the invention using UV-vis. First, oversaturated mixtures of each probe were prepared. The mixtures were centrifuged, and then the concentrations in probes of supernatant were examined by UV-vis. To further validate the results, the concentrations were calculated from the isolated pellet weight."}, "[5]": {"experiment": "Probe performance in Cedex Bio HT: Cys sensing in a feed medium", "experimental": "The rapid kinetic profile, stability and low background signal as obtained were encouraging to further use MF70 for Cys-sensing in Cedex Bio HT. Reagent solution was treated with various Cys-concentrations (0.5-7.6 mM) in a feed medium, which is used for monoclonal antibody production. […] Under these conditions, a reliable response was obtained over the period of one week (Table 5), with corresponding detection limit of 3.6 μM Cys, and limit of blank 2.2 μM Cys."}},
  "note": "Marks after values point to notes of the source that are not given here.",
  "data": [
    {"compound": "C=CC(=O)Oc1ccc(/C=C/C2=[N+](CCCCS(=O)(=O)[O-])c3ccccc3C2(C)C)cc1", "note": "[LZ05, reference compound]", "values": [
      {"measurement": "ε of long-wavelength band of probe", "setting": "[1]", "value": 1.3, "unit": "mM⁻¹ cm⁻¹"},
      {"measurement": "ε of short-wavelength band(s) of probe", "setting": "[1]", "value": 17.3, "unit": "mM⁻¹ cm⁻¹"},
      {"measurement": "λmax, long-wavelength band of probe", "setting": "[1]", "value": 527, "unit": "nm"},
      {"measurement": "λmax, short-wavelength band(s) of probe", "setting": "[1]", "value": 389, "unit": "nm"},
      {"measurement": "ε^Cys", "setting": "[2]; 25 mM HEPES pH 7.4", "value": 31.9, "unit": "mM⁻¹ cm⁻¹"},
      {"measurement": "λ^Cys", "setting": "[2]; 25 mM HEPES pH 7.4", "value": 527, "unit": "nm"},
      {"measurement": "SNR", "setting": "[2]; 25 mM HEPES pH 7.4", "value": 12},
      {"measurement": "Hydrolysis @4° C.", "setting": "[3]", "value": "8.4 ± 0.2", "unit": "%"},
      {"measurement": "Hydrolysis @37° C.", "setting": "[3]", "value": "36.9 ± 0.4", "unit": "%"},
      {"measurement": "Solubility (by weight)", "setting": "[4]", "value": 12, "unit": "mM"},
      {"measurement": "Solubility (by UV-vis)", "setting": "[4]", "value": "11.0 ± 1.0", "unit": "mM"}
    ]},
    {"compound": "C=CC(=O)Oc1ccc(/C=C/C2=[N+](C)c3ccccc3C2(C)C)cc1", "note": "[LZ07, reference compound]", "values": [
      {"measurement": "ε of long-wavelength band of probe", "setting": "[1]", "value": 0.6, "unit": "mM⁻¹ cm⁻¹"},
      {"measurement": "ε of short-wavelength band(s) of probe", "setting": "[1]", "value": 16.9, "unit": "mM⁻¹ cm⁻¹"},
      {"measurement": "λmax, long-wavelength band of probe", "setting": "[1]", "value": 520, "unit": "nm"},
      {"measurement": "λmax, short-wavelength band(s) of probe", "setting": "[1]", "value": 383, "unit": "nm"},
      {"measurement": "ε^Cys", "setting": "[2]; 25 mM HEPES pH 7.4", "value": 31.5, "unit": "mM⁻¹ cm⁻¹"},
      {"measurement": "λ^Cys", "setting": "[2]; 25 mM HEPES pH 7.4", "value": 520, "unit": "nm"},
      {"measurement": "SNR", "setting": "[2]; 25 mM HEPES pH 7.4", "value": 16},
      {"measurement": "Hydrolysis @4° C.", "setting": "[3]", "value": "7.3 ± 0.1", "unit": "%"},
      {"measurement": "Hydrolysis @37° C.", "setting": "[3]", "value": "30.1 ± 0.2", "unit": "%"},
      {"measurement": "Solubility (by weight)", "setting": "[4]", "value": 17, "unit": "mM"},
      {"measurement": "Solubility (by UV-vis)", "setting": "[4]", "value": "15.4 ± 1.5", "unit": "mM"}
    ]},
    {"compound": "C=CC(=O)Oc1c(C)cc(/C=C/C2=[N+](CCCCS(=O)(=O)[O-])c3ccccc3C2(C)C)cc1C", "note": "[MF59]", "values": [
      {"measurement": "ε of long-wavelength band of probe", "setting": "[1]", "value": 0.7, "unit": "mM⁻¹ cm⁻¹"},
      {"measurement": "ε of short-wavelength band(s) of probe", "setting": "[1]", "value": 16.7, "unit": "mM⁻¹ cm⁻¹"},
      {"measurement": "λmax, long-wavelength band of probe", "setting": "[1]", "value": 550, "unit": "nm"},
      {"measurement": "λmax, short-wavelength band(s) of probe", "setting": "[1]", "value": 391, "unit": "nm"},
      {"measurement": "ε^Cys", "setting": "[2]; 25 mM HEPES pH 7.4", "value": 17.9, "unit": "mM⁻¹ cm⁻¹"},
      {"measurement": "λ^Cys", "setting": "[2]; 25 mM HEPES pH 7.4", "value": 550, "unit": "nm"},
      {"measurement": "ε^Cys", "setting": "[2]; same buffer at pH 8.0", "value": 52.9, "unit": "mM⁻¹ cm⁻¹"},
      {"measurement": "λ^Cys", "setting": "[2]; same buffer at pH 8.0", "value": 550, "unit": "nm"},
      {"measurement": "SNR", "setting": "[2]; 25 mM HEPES pH 7.4", "value": 20},
      {"measurement": "SNR", "setting": "[2]; same buffer at pH 8.0", "value": "44**"},
      {"measurement": "Hydrolysis @4° C.", "setting": "[3]", "value": "1.2 ± 0.0", "unit": "%"},
      {"measurement": "Hydrolysis @37° C.", "setting": "[3]", "value": "4.7 ± 0.1", "unit": "%"},
      {"measurement": "Solubility (by weight)", "setting": "[4]", "value": 2, "unit": "mM"},
      {"measurement": "Solubility (by UV-vis)", "setting": "[4]", "value": "5.8 ± 0.2", "unit": "mM"}
    ]},
    {"compound": "C=CC(=O)Oc1c(C)cc(/C=C/C2=[N+](CCCS(=O)(=O)O)c3ccc(S(=O)(=O)[O-])cc3C2(C)C)cc1C", "note": "[MF70]", "values": [
      {"measurement": "ε of short-wavelength band(s) of probe", "setting": "[1]", "value": 21.9, "unit": "mM⁻¹ cm⁻¹"},
      {"measurement": "λmax, short-wavelength band(s) of probe", "setting": "[1]", "value": 400, "unit": "nm"},
      {"measurement": "ε of short-wavelength band of probe", "setting": "[1]; same buffer at pH 8.0", "value": 16.6, "unit": "mM⁻¹ cm⁻¹"},
      {"measurement": "λmax, short-wavelength band of probe", "setting": "[1]; same buffer at pH 8.0", "value": 400, "unit": "nm"},
      {"measurement": "ε^Cys", "setting": "[2]; 25 mM HEPES pH 7.4", "value": 23.6, "unit": "mM⁻¹ cm⁻¹"},
      {"measurement": "λ^Cys", "setting": "[2]; 25 mM HEPES pH 7.4", "value": 556, "unit": "nm"},
      {"measurement": "ε^Cys", "setting": "[2]; same buffer at pH 8.0", "value": 55.8, "unit": "mM⁻¹ cm⁻¹"},
      {"measurement": "λ^Cys", "setting": "[2]; same buffer at pH 8.0", "value": 556, "unit": "nm"},
      {"measurement": "SNR", "setting": "[2]; 25 mM HEPES pH 7.4", "value": 118},
      {"measurement": "SNR", "setting": "[2]; same buffer at pH 8.0", "value": "140**"},
      {"measurement": "Hydrolysis @4° C.", "setting": "[3]", "value": "0.2 ± 0.0", "unit": "%"},
      {"measurement": "Hydrolysis @37° C.", "setting": "[3]", "value": "0.8 ± 0.0", "unit": "%"},
      {"measurement": "Solubility (by weight)", "setting": "[4]", "value": "≥47", "unit": "mM"},
      {"measurement": "Solubility (by UV-vis)", "setting": "[4]", "value": "≥41", "unit": "mM"},
      {"measurement": "aqueous solubility (in words)", "setting": "[4]; in comparison to LZ05 and MF59", "value": "highly water-soluble"},
      {"measurement": "detection limit", "setting": "[5]", "value": 3.6, "unit": "μM Cys"},
      {"measurement": "limit of blank", "setting": "[5]", "value": 2.2, "unit": "μM Cys"}
    ]},
    {"compound": "C=CC(=O)Oc1c(OC)cc(/C=C/C2=[N+](CCCCS(=O)(=O)[O-])c3ccccc3C2(C)C)cc1OC", "note": "[MF72]", "values": [
      {"measurement": "ε of short-wavelength band(s) of probe", "setting": "[1]", "value": 14.2, "unit": "mM⁻¹ cm⁻¹"},
      {"measurement": "λmax, short-wavelength band(s) of probe", "setting": "[1]", "value": 396, "unit": "nm"},
      {"measurement": "ε^Cys", "setting": "[2]; 25 mM HEPES pH 7.4", "value": 31.0, "unit": "mM⁻¹ cm⁻¹"},
      {"measurement": "λ^Cys", "setting": "[2]; 25 mM HEPES pH 7.4", "value": 575, "unit": "nm"},
      {"measurement": "SNR", "setting": "[2]; 25 mM HEPES pH 7.4", "value": 103},
      {"measurement": "Hydrolysis @4° C.", "setting": "[3]", "value": "0.8 ± 0.1", "unit": "%"},
      {"measurement": "Hydrolysis @37° C.", "setting": "[3]", "value": "2.8 ± 0.1", "unit": "%"}
    ]}
  ]
}
